The subject of data set [1] is rat. To be noted: Prenatal developmental toxicity study, sprague dawley, Oral, Gavage/Intubation, dose end: 17 GD.
A further data set deals with rabbit. To be noted: Prenatal developmental toxicity study, new zealand white, Oral, Gavage/Intubation, dose end: 18 GD, group: maternal.
Data set [2] concerns mouse. To be noted: Subchronic oral toxicity in rodents, b6c3f1, Feed, dose end: 13 week, group: systemic.
Data set [3] relates to rat. To be noted: Subchronic oral toxicity in rodents, fischer, Feed, dose end: 13 week, group: systemic.
Data set [4] has as its system rat. To be noted: Carcinogenicity, fischer, Oral, Feed, dose end: 105 week, group: systemic.
The subject of data set [5] is mouse. To be noted: Carcinogenicity, b6c3f1, Oral, Feed, dose end: 105 week, group: systemic.
The test system of data set [6] is rat. The note with it: Subchronic oral toxicity in rodents, sprague dawley, Gavage/Intubation, dose end: 90 day, group: systemic.
The subject of data set [7] is rat. The note with it: Subchronic oral toxicity in rodents, Sprague Dawley, Feed, dose end: 14 week, group: systemic.
The test system of data set [8] is rat. The note with it: Developmental neurotoxicity study, sprague dawley, Oral, Gavage/Intubation, dose end: 72 PND, group: cannot be grouped.
The subject of data set [9] is rat. To be noted: Multigenerational reproductive toxicity study, sprague dawley, Oral, Gavage/Intubation, dose end: 2 generation.
In data set [10] the test system is rat. To be noted: Combined chronic toxicity/carcinogenicity, Crl: CD (SD) IGS BR, Oral, Feed, dose end: 104 week, group: systemic.
In data set [11] the test system is rat. To be noted: Multigenerational reproductive toxicity study, sprague dawley, Oral, Feed, dose end: 2 generation.
In another data set the test system is dog. The note with it: Chronic toxicity; beagle; Oral; Feed; dose end: 12 month; group: systemic; systemic / hematology / anemia / anemia - hemolytic + systemic / hematology / erythrocyte (rbc) count differential / erythrocyte (rbc) + ….
Data set [12] concerns rat. The note with it: Combined chronic toxicity/carcinogenicity, sprague dawley, Oral, Feed, dose end: 31 month, group: systemic.
Data set [13] deals with mouse. To be noted: Carcinogenicity, cd1, Oral, Feed, dose end: 78 week, group: systemic.
The next data set relates to primate. The note with it: Subchronic oral toxicity in nonrodent, rhesus, Feed, dose end: 6 month, group: systemic, systemic / organ weight / thyroid gland / absolute.
For data set [14], the system named is rat. The note with it: Prenatal developmental toxicity study, sprague dawley, Oral, Gavage/Intubation, dose end: 15 GD.
Setting [15] is: group: developmental, systemic / in life observation / body weight / fetal weight.
The mark [16] stands for this setting: group: maternal, systemic / in life observation / body weight / body weight gain + systemic / in life observation / food consumption / food consumption.
Setting [17] is: systemic / in life observation / body weight / body weight + systemic / in life observation / clinical signs / soft stools + systemic / in ….
Where [18] appears, read: systemic / in life observation / body weight / body weight + systemic / in life observation / body weight / body weight gain + systemic / ….
[19] abbreviates: systemic / in life observation / food consumption / food consumption + systemic / organ weight / brain / absolute + systemic / organ weight….
The mark [20] stands for this setting: systemic / in life observation / body weight / body weight gain.
Where [21] appears, read: systemic / pathology microscopic / blood / leukemia mononuclear + systemic / pathology microscopic / esophagus / squamous cell papilloma + ….
[22] abbreviates: systemic / pathology microscopic / mammary gland / fibroadenoma + systemic / pathology microscopic / oral mucosa / squamous cell papilloma….
Setting [23] is: systemic / pathology microscopic / blood vessel / [other] + systemic / in life observation / clinical signs / [other] + systemic / in life ….
[24] abbreviates: systemic / pathology microscopic / stomach / acanthosis + systemic / pathology microscopic / stomach / hyperkeratosis + systemic / clinical ….
[25] abbreviates: systemic / clinical chemistry / aspartate aminotransferase (ast/sgot) / aspartate aminotransferase (ast/sgot) + systemic / clinical ….
The mark [26] stands for this setting: systemic / in life observation / body weight / body weight + systemic / in life observation / body weight / body weight gain + systemic / in….
[27] abbreviates: group: offspring, developmental / developmental landmark / eye opening / eye opening + developmental / developmental landmark / pinna unfolding / pinna ….
[28] abbreviates: group: parental, systemic / in life observation / body weight / body weight + systemic / in life observation / body weight / body weight gain + systemic / in….
The mark [29] stands for this setting: group: reproductive, reproductive / offspring survival early / litter viability other / total litter loss.
Where [30] appears, read: group: reproductive, reproductive / reproductive performance / gestational length / gestational length + reproductive / reproductive performance / implantations….
The mark [31] stands for this setting: systemic / in life observation / body weight / body weight + systemic / organ weight / liver / relative to body weight + systemic / ….
[32] abbreviates: group: offspring, systemic / organ weight / liver / nos.
[33] abbreviates: group: parental, systemic / organ weight / testes / nos.
[34] abbreviates: group: reproductive, reproductive / reproductive performance / precoital interval / precoital interval.
Setting [35] is: systemic / clinical chemistry / thyroxine (t4) / thyroxine (t4), total.
The mark [36] stands for this setting: systemic / pathology microscopic / liver / adenoma + systemic / pathology microscopic / lung / adenoma + systemic / clinical chemistry / ….
Setting [37] is: left thyroid + systemic / clinical chemistry / [other] / [other] + systemic / in life ….
The mark [38] stands for this setting: group: developmental, developmental / developmental malformation / bone / bent + developmental / developmental malformation / bone / incomplete ossification + ….
The mark [39] stands for this setting: group: maternal, reproductive / reproductive performance / postimplantation loss / postimplantation loss + reproductive / reproductive performance / ….

Structures are written as SMILES.

In general, LOAEL refers to the lowest dose or exposure tested at which an adverse effect was seen. What is called NOAEL is the highest tested level that showed no adverse finding. In the data set with rat [1] (setting [15]), `CC(C)n1cc2c3c(cccc31)[C@H]1C[C@@H](C(=O)NC3CCCCC3)CN(C)[C@@H]1C2` [Amesergide] showed an LEL of 30 mg/kg/day, an LOAEL of over 30 mg/kg/day, an NEL of 10 mg/kg/day and an NOAEL of at least 30 mg/kg/day. Besides, in the data set on rat [1] (setting [16]), the LEL is 30 mg/kg/day, the LOAEL is over 30 mg/kg/day, the NEL stood at 10 mg/kg/day and the NOAEL is at least 30 mg/kg/day. Besides, in the data set on rabbit (setting [17]), the LOAEL was over 15 mg/kg/day, the NEL amounted to 0.2 mg/kg/day and the NOAEL was at least 15 mg/kg/day. Also, the LEL in the data set with rabbit (systemic / in life observation / food consumption / food consumption) was 2 mg/kg/day.

In the case of `OCC(CO)(CBr)CBr` [2,2-Bis(bromomethyl)-1,3-propanediol], the LOAEL was 500 mg/kg/day in the data set with mouse [2] (setting [18]), 400 mg/kg/day with rat [3] (setting [18]), over 430 mg/kg/day in the data set with rat [4] (setting [21]) and 80 mg/kg/day in the data set with mouse [5] (systemic / pathology microscopic / lung / hyperplasia). Besides, the no-observed-adverse-effect level (NOAEL) in the data set with mouse [2] (setting [18]) was 200 mg/kg/day; in the data set on rat [3] (setting [18]) it was 200 mg/kg/day; with rat [4] (setting [21]), at least 430 mg/kg/day; in the data set with mouse [5] (systemic / pathology microscopic / lung / hyperplasia + systemic / pathology microscopic / blood vessel / [other] + systemic / pathology …), 40 mg/kg/day. Further, the LEL was 100 mg/kg/day in the data set with mouse [2] (setting [19]), 100 mg/kg/day in the data set on rat [3] (setting [20]), 100 mg/kg/day with rat [4] (setting [22]) and 35 mg/kg/day with mouse [5] (setting [23]). The NEL in the data set with mouse [2] (setting [19]) was under 100 mg/kg/day; with rat [3] (setting [20]), under 100 mg/kg/day; in the data set with rat [4] (setting [22]), under 100 mg/kg/day; with mouse [5] (setting [23]), under 35 mg/kg/day.

For the compound `C1CN(CN2CCOCC2)CCO1` [4,4-Methylenedimorpholine], the lowest-observed-adverse-effect level (LOAEL) in the data set on rat [6] (systemic / pathology microscopic / stomach / acanthosis + systemic / pathology microscopic / stomach / hyperkeratosis) was determined as 50 mg/kg/day. In the data set on rat [6] (setting [24]), the NEL was determined as 15 mg/kg/day and the NOAEL amounted to 15 mg/kg/day. The LEL in the data set with rat [6] (systemic / pathology microscopic / stomach / acanthosis + systemic / pathology microscopic / stomach / hyperkeratosis + systemic / in life …) was found to be 50 mg/kg/day.

On to `O=S(=O)([O-])C(F)(F)C(F)(F)C(F)(F)C(F)(F)C(F)(F)C(F)(F)C(F)(F)C(F)(F)F.[K+]` [PFOS-K], for which the NEL stood at 0.1 mg/kg/day in the data set on rat [7] (systemic / clinical chemistry / alanine aminotransferase (alt/sgpt) / alanine aminotransferase (alt/sgpt) + systemic / clinical chemistry / …); 0.3 mg/kg/day in the data set on rat [8] (setting [26]); 0.4 mg/kg/day in the data set on rat [9] (setting [27]); 0.1 mg/kg/day in the data set on rat [9] (setting [28]); 0.4 mg/kg/day with rat [9] (setting [29]); 0.025 mg/kg/day with rat [10] (systemic / pathology microscopic / liver / adenoma + systemic / in life observation / body weight / body weight + systemic / organ weight / …). The LOAEL with rat [7] (setting [25]) is over 1 mg/kg/day; in the data set with rat [8] (systemic / in life observation / body weight / body weight), 1 mg/kg/day; in the data set with rat [9] (setting [27]), over 3.2 mg/kg/day; in the data set with rat [9] (setting [28]), over 3.2 mg/kg/day; with rat [9] (setting [30]), over 3.2 mg/kg/day; with rat [10] (setting [31]), over 1 mg/kg/day. The NOAEL in the data set on rat [7] (setting [25]) is at least 1 mg/kg/day; with rat [8] (setting [26]), 0.3 mg/kg/day; with rat [9] (setting [27]), at least 3.2 mg/kg/day; in the data set on rat [9] (setting [28]), at least 3.2 mg/kg/day; in the data set with rat [9] (setting [30]), at least 3.2 mg/kg/day; with rat [10] (setting [31]), at least 1 mg/kg/day. Besides, the LEL was determined as 0.25 mg/kg/day in the data set with rat [7] (systemic / pathology microscopic / liver / hypertrophy + systemic / pathology microscopic / liver / vacuolization); 1 mg/kg/day in the data set with rat [8] (setting [26]); 1.6 mg/kg/day in the data set with rat [9] (setting [27]); 0.4 mg/kg/day with rat [9] (group: parental, systemic / in life observation / body weight / body weight gain); 1.6 mg/kg/day with rat [9] (setting [29]); 0.1 mg/kg/day in the data set with rat [10] (systemic / pathology microscopic / liver / degeneration + systemic / pathology microscopic / liver / eosinophilic focus).

Consider `S=C([S-])NCCNC(=S)[S-].[Mn+2]` [Maneb], for which the lowest-observed-adverse-effect level (LOAEL) in the data set on rat [11] (group: offspring, developmental / developmental landmark / vaginal opening / vaginal opening) was 106 mg/kg/day; in the data set with rat [11] (group: parental, systemic / organ weight / lung / nos), 21.2 mg/kg/day; in the data set on rat [11] (setting [34]), over 106 mg/kg/day; in the data set on dog it was 33.8 mg/kg/day; in the data set with rat [12] (systemic / pathology microscopic / urinary bladder / dysplasia + systemic / clinical chemistry / [other] / [other] + systemic / clinical …), 68.4 mg/kg/day; with mouse [13] (setting [36]), over 355 mg/kg/day. The LOAEL is 15.5 mg/kg/day in the data set with primate (left thyroid), over 500 mg/kg/day with rat [14] (setting [38]) and 100 mg/kg/day in the data set on rat [14] (setting [39]). Further, the no-observed-adverse-effect level (NOAEL) in the data set on rat [11] (group: offspring, developmental / developmental landmark / vaginal opening / vaginal opening + systemic / in life observation / body weight / offspring (pup) …) is 25.1 mg/kg/day; in the data set with rat [11] (group: parental, systemic / organ weight / lung / nos + systemic / in life observation / body weight / body weight + systemic / in life observation / body …) it was 5.3 mg/kg/day; with rat [11] (setting [34]), at least 106 mg/kg/day; in the data set on dog, 6.36 mg/kg/day; with rat [12] (systemic / pathology microscopic / urinary bladder / dysplasia + systemic / pathology microscopic / skeletal muscle / sarcoma + systemic / …) it was 20.4 mg/kg/day; with mouse [13] (setting [36]), at least 355 mg/kg/day. Further, the NOAEL in the data set on primate (setting [37]) is 5.2 mg/kg/day; with rat [14] (setting [38]), at least 500 mg/kg/day; with rat [14] (setting [39]), 20 mg/kg/day. In addition, the LEL in the data set with rat [11] (setting [32]) is 5.8 mg/kg/day; in the data set on rat [11] (setting [33]), 5.3 mg/kg/day; with rat [11] (setting [34]), 106 mg/kg/day; in the data set with dog it was 7.18 mg/kg/day; in the data set on rat [12] (systemic / organ weight / adrenal gland / absolute), 21.8 mg/kg/day; with mouse [13] (setting [35]), 10.8 mg/kg/day. The LEL in the data set on primate (left thyroid) was found to be 15.5 mg/kg/day; in the data set with rat [14] (setting [38]), 500 mg/kg/day; with rat [14] (setting [39]), 100 mg/kg/day. Further, the NEL with rat [11] (setting [32]) was under 5.8 mg/kg/day; in the data set with rat [11] (setting [33]), under 5.3 mg/kg/day; with rat [11] (setting [34]), 25.1 mg/kg/day; in the data set with dog, 1.71 mg/kg/day; in the data set on rat [12] (systemic / organ weight / adrenal gland / absolute + systemic / pathology microscopic / pituitary gland / adenoma + systemic / pathology …), 7.32 mg/kg/day; with mouse [13] (setting [35]), under 10.8 mg/kg/day. Moreover, the NEL in the data set on primate (setting [37]) was 5.2 mg/kg/day; with rat [14] (setting [38]), 100 mg/kg/day; with rat [14] (setting [39]) it was 20 mg/kg/day.
